Laboratory results taken from the NIST ThermoML archive (doi:10.1021/je100864e).

Assay: osmotic coefficient (dimensionless); mn = molality of the nth substance listed, in mol/kg
Conditions: 298.15 K, Liquid, isopiestic method

O=C([O-])CC(O)(CC(=O)O)C(=O)O.[Na+] [sodium dihydrogen citrate] + O
Conditions | osmotic coefficient
m1 = 0.3252 | 0.849
m1 = 0.4619 | 0.829
m1 = 0.5944 | 0.82
m1 = 0.7158 | 0.803
m1 = 0.7377 | 0.81
m1 = 0.7458 | 0.805
m1 = 0.7565 | 0.801
m1 = 0.7666 | 0.798
m1 = 0.78 | 0.81
m1 = 0.9089 | 0.801
m1 = 1.096 | 0.813

O=C([O-])CC(O)(CC(=O)[O-])C(=O)O.[Na+].[Na+] [disodium hydrogen citrate] + O
Conditions | osmotic coefficient
m1 = 0.2817 | 0.806
m1 = 0.2939 | 0.792
m1 = 0.3096 | 0.77
m1 = 0.3227 | 0.773
m1 = 0.3856 | 0.759
m1 = 0.4011 | 0.753
m1 = 0.4258 | 0.75
m1 = 0.4592 | 0.724
m1 = 0.4761 | 0.726
m1 = 0.4822 | 0.728
m1 = 0.5501 | 0.714
m1 = 0.6381 | 0.71
m1 = 0.6827 | 0.706
m1 = 0.6915 | 0.705
m1 = 0.6951 | 0.707
m1 = 0.6997 | 0.708
m1 = 1.018 | 0.689
m1 = 1.09 | 0.688
m1 = 1.107 | 0.682
m1 = 1.246 | 0.688
m1 = 1.329 | 0.682
m1 = 1.579 | 0.694
m1 = 1.635 | 0.694
m1 = 1.659 | 0.69
m1 = 1.731 | 0.69
m1 = 1.788 | 0.701
m1 = 1.928 | 0.702
m1 = 1.934 | 0.693
m1 = 2 | 0.704
m1 = 2.327 | 0.711
m1 = 2.393 | 0.712
m1 = 2.439 | 0.711
